What was measured:
Type in all cases: in vivo
mice [1] = experiment: Forced Swim Test
Procedure: Forced Swim Test. The test apparatus consisted of a clear plastic cylindrical tank, 35 cm high and 25 cm in diameter, which was filled to a depth of 25 cm with tap water equilibrated overnight to room temperature (24° C.). A glass plate covered the top of the tank to prevent escape while the mouse was swimming. The water in the tank was replaced by fresh water at room temperature after three mice had been tested. To habituate the mouse, it was forced to swim in the tank for 15 min., then removed and dried by toweling and a heat lamp, and returned to its cage. Twenty-four hours later, the mouse was returned to the tank and allowed to swim for 5 min. while its swimming activity was recorded by a video camera, mounted above the tank. After this, the mouse was dried and returned to its cage. End points of the test were total time spent floating in an immobile position, without paddling of limbs (swimming) (Porsolt et al. Nature (1977) 266:730-732).

mice [2] = experiment: Hot plate test; conditions: peroral administration, 50 mg/kg, plate 55.0±0.5° C., 30 min after compound
Procedure: Hot plate test. Male mice weighing from 25 to 30 g were used in this test. […] The surface of the plate was maintained at a temperature of 55.0±0.5° C. […] Time (in seconds) to either hind paw licking or jumping was recorded as pain response latency. To avoid the likelihood of tolerance of mice to hot plate, all mice were exposed to hot plate only once through the whole experiment. The mice were exposed to hot plate only once; either before or after injection of drug.

mice [3] = experiment: Tail-flick test
Procedure: Tail-flick test. The tail-flick test, using a radiant heat source was carried out to study antinociception. Each mouse was placed in an acrylic tube and its tail was laid across a Nichrome™ wire coil, which was heated by the passage of an electric current. The intensity of the current was kept at 5 mA. All animals were screened for the tail-flick response. Only those showing a flick within 4 sec were included in the study. After 1 h of final dosing, the mice were submitted to three tail-flick tests.

mice [4] = experiment: Formalin paw test; conditions: formalin 4.5%, 20 μl, left hind paw, dose 30 mg/kg, compared to control
Procedure: Formalin paw test. The mice received an injection of formalin (4.5%, 20 μl) to the left hind paw. The irritation caused by the formalin injection elicits a characteristic biphasic behavioral response as quantified by the amount of time spent licking the injured paw. The first phase (˜5-10 minutes) represents direct chemical […], and the second phase (˜20-30 minutes) is thought to represent pain of neuropathic origin (Tjølsen A et al. Pain (1992) 51:5-17). The two phases are separated by a quiescent period in which behavior returns to normal. The effectiveness of test compounds to reduce the painful stimuli is assessed by counting the amount of time spent licking the injured paw in the two phases.

## NC(=O)N1c2ccccc2C=Cc2ccccc21 [carbamazepine]
Mice [1]; 50 mg/kg
  antidepressive effect (total time spent floating immobile): significant effect

## CCCC(CCC)C(=O)[O-].[Na+] [sodium valproate]
Mice [1]; 250 mg/kg
  antidepressive effect (total time spent floating immobile): significant effect

## O=C1CNC(=O)/C1=C\NCc1ccccc1 [tetramic derivative of the invention]
Mice [2]
  analgesic effect (pain response latency, hot plate): analgesic effect
Mice [3]; highest dose tested 500 mg/kg, versus phenytoin 100 mg/kg and valproate 500 mg/kg
  analgesic effect (tail-flick) compared to phenytoin and valproate: relatively better analgesic effect
Mice [3]; peroral administration, 1 h after final dosing
  analgesic effect (tail-flick): analgesic effect
Mice [4]
  reduction in pain score in the chronic phase: 5%
Mice [1]; 100 mg/kg
  antidepressive effect (total time spent floating immobile): significant antidepressive effect
